Reference: PubChem BioAssay AID212 (DTP/NCI, 2004)
“And” between values parts separate entries of the source, which are not always exact repeats. Identical values can stand only once. Inconclusive results are not listed.

System: BDF1 mice, colon carcinoma 38 sc, T/C %
Test: NCI In Vivo Anticancer Drug Screen. Data for tumor model Colon Carcinoma 38 (subcutaneous) in B6D2F1 (BDF1) mice
Details: endpoint: median tumor weight (est.), schedule: Q07DX002 (ip), higher = larger tumour
Procedure, shortened: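 Mice with transplanted tumors are treated with compound or vehicle. Survival or tumor size is then measured in both groups. The ratio of treated to control gives the reported figure.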

[1] = dose: 25.0 mg/kg/injection, vehicle: saline with Tween-80
[2] = dose: 50.0 mg/kg/injection, vehicle: saline with Tween-80
[3] = dose: 100.0 mg/kg/injection, vehicle: saline with Tween-80
[4] = dose: 200.0 mg/kg/injection, vehicle: saline with Tween-80

O=C(O)CC(NC(=O)CP(=O)(O)O)C(=O)O.[NH-]C1CCCCC1[NH-].[Pt+2] (configuration not stated)
T/C (dose: 1.56 mg/kg/injection, vehicle: dextrose): 103 % of control | T/C (dose: 3.12 mg/kg/injection, vehicle: dextrose): 77 % of control and 87 % of control | T/C (dose: 6.25 mg/kg/injection, vehicle: dextrose): 85 % of control and 90 % of control | T/C (dose: 12.5 mg/kg/injection, vehicle: dextrose): 64 % of control and 65 % of control | T/C (dose: 25.0 mg/kg/injection, vehicle: dextrose): 44 % of control and 54 % of control | T/C (dose: 50.0 mg/kg/injection, vehicle: dextrose): 14 % of control

O=C1CC(C(=O)N2Cc3cc4ccccc4nc3C2)CO1 (configuration not stated)
T/C (dose: 6.25 mg/kg/injection, vehicle: saline with Tween-80): 72 % of control | T/C (dose: 12.5 mg/kg/injection, vehicle: saline with Tween-80): 100 % of control | T/C [1]: 101 % of control | T/C [2]: 122 % of control | T/C [3]: 124 % of control | T/C [4]: 100 % of control

CC(=O)NC(Cc1ccc(F)cc1)C(=O)O (configuration not stated)
T/C [3]: 84 % of control | T/C [4]: 83 % of control | T/C (dose: 400.0 mg/kg/injection, vehicle: saline with Tween-80): 77 % of control | T/C (dose: 800.0 mg/kg/injection, vehicle: saline with Tween-80): 77 % of control

O=CC(S)CO (configuration not stated)
T/C (dose: 12.5 mg/kg/injection, vehicle: suspension in saline): 76 % of control | T/C (dose: 25.0 mg/kg/injection, vehicle: suspension in saline): 95 % of control | T/C (dose: 50.0 mg/kg/injection, vehicle: suspension in saline): 113 % of control | T/C (dose: 200.0 mg/kg/injection, vehicle: suspension in saline): 97 % of control

O=c1n(CC2CO2)c(=O)n(CC2CO2)n1CC1CO1 (configuration not stated)
T/C (dose: 12.5 mg/kg/injection, vehicle: saline): 25 % of control | T/C (dose: 25.0 mg/kg/injection, vehicle: saline): 25 % of control | T/C (dose: 50.0 mg/kg/injection, vehicle: saline): 18 % of control

CCCCCCCCCCCCCCCC(=O)OCC1OC(n2ccc(N)nc2=O)C(O)C1O (configuration not stated)
T/C [1]: 72 % of control | T/C [2]: 36 % of control | T/C [3]: 7 % of control

c1ccc2c(c1)[As]=c1ccccc1=[As]2 (configuration not stated)
T/C (dose: 3.0 mg/kg/injection, vehicle: saline): 124 % of control
